System: NOMO1
Experiment: cell viability relative to DMSO control; higher = less cytotoxic
Details: 48 h
Procedure, shortened: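 Viability is expressed as a percentage of DMSO wells within each plate, and cell-free wells serve as background. Seeding densities in the 1536-well plates (5 μl) were 500 cells/well for NOMO1 or SEM leukemia cells and 1000 cells/well for P12-Ichikawa. Each line was adapted for at least four passages in each medium. Library compounds in DMSO were pin-dosed at 47 μM to 0.79 nM (11 points, threefold), and CellTiter-Glo One luminescence was read after 48 h at 37°C.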

[1] = HPLM + 10% dialyzed FBS, 0.000781 µM
[2] = HPLM + 10% dialyzed FBS, 0.00234 µM
[3] = HPLM + 10% dialyzed FBS, 0.00702 µM
[4] = HPLM + 10% dialyzed FBS, 0.0211 µM
[5] = HPLM + 10% dialyzed FBS, 0.0632 µM
[6] = HPLM + 10% dialyzed FBS, 0.19 µM
[7] = HPLM + 10% dialyzed FBS, 0.569 µM
[8] = HPLM + 10% dialyzed FBS, 1.71 µM
[9] = HPLM + 10% dialyzed FBS, 5.12 µM
[10] = HPLM + 10% dialyzed FBS, 15.4 µM
[11] = HPLM + 10% dialyzed FBS, 46.1 µM
[12] = RPMI 5 mM glucose + 10% FBS, 0.000781 µM
[13] = RPMI 5 mM glucose + 10% FBS, 0.00234 µM
[14] = RPMI 5 mM glucose + 10% FBS, 0.00702 µM
[15] = RPMI 5 mM glucose + 10% FBS, 0.0211 µM
[16] = RPMI 5 mM glucose + 10% FBS, 0.0632 µM
[17] = RPMI 5 mM glucose + 10% FBS, 0.19 µM
[18] = RPMI 5 mM glucose + 10% FBS, 0.569 µM
[19] = RPMI 5 mM glucose + 10% FBS, 1.71 µM
[20] = RPMI 5 mM glucose + 10% FBS, 5.12 µM
[21] = RPMI 5 mM glucose + 10% FBS, 15.4 µM
[22] = RPMI 5 mM glucose + 10% FBS, 46.1 µM
[23] = RPMI 5 mM glucose + 10% dialyzed FBS, 0.000781 µM
[24] = RPMI 5 mM glucose + 10% dialyzed FBS, 0.00234 µM
[25] = RPMI 5 mM glucose + 10% dialyzed FBS, 0.00702 µM
[26] = RPMI 5 mM glucose + 10% dialyzed FBS, 0.0211 µM
[27] = RPMI 5 mM glucose + 10% dialyzed FBS, 0.0632 µM
[28] = RPMI 5 mM glucose + 10% dialyzed FBS, 0.19 µM
[29] = RPMI 5 mM glucose + 10% dialyzed FBS, 0.569 µM
[30] = RPMI 5 mM glucose + 10% dialyzed FBS, 1.71 µM
[31] = RPMI 5 mM glucose + 10% dialyzed FBS, 5.12 µM
[32] = RPMI 5 mM glucose + 10% dialyzed FBS, 15.4 µM
[33] = RPMI 5 mM glucose + 10% dialyzed FBS, 46.1 µM

Row | Compound | cell viability [1] [%] | cell viability [2] [%] | cell viability [3] [%] | cell viability [4] [%] | cell viability [5] [%] | cell viability [6] [%] | cell viability [7] [%] | cell viability [8] [%] | cell viability [9] [%] | cell viability [10] [%] | cell viability [11] [%] | cell viability [12] [%] | cell viability [13] [%] | cell viability [14] [%] | cell viability [15] [%] | cell viability [16] [%] | cell viability [17] [%] | cell viability [18] [%] | cell viability [19] [%] | cell viability [20] [%] | cell viability [21] [%] | cell viability [22] [%] | cell viability [23] [%] | cell viability [24] [%] | cell viability [25] [%] | cell viability [26] [%] | cell viability [27] [%] | cell viability [28] [%] | cell viability [29] [%] | cell viability [30] [%] | cell viability [31] [%] | cell viability [32] [%] | cell viability [33] [%]
1 | COc1cc([C@@H]2c3cc4c(cc3[C@@H](O[C@@H]3O[C@@H]5CO[C@@H](c6cccs6)O[C@H]5[C@H](O)[C@H]3O)[C@H]3COC(=O)[C@H]23)OCO4)cc(OC)c1O | 92.7 | 97.4 | 115 | 111 | 103 | 89.6 | 97.7 | 34.3 | 116 | 31.1 | 13.8 | 85.3 | 85.6 | 89.7 | 97.2 | 81.7 | 99.3 | 91.2 | 22.9 | 101 | 22.4 | 12.7 | 89.5 | 82.9 | 91 | 89.6 | 93.2 | 90.6 | 101 | 32.4 | 99.3 | 25.2 | 16.7
2 | CO[C@@H]1C(N(C)C(=O)c2ccccc2)C[C@H]2O[C@]1(C)n1c3ccccc3c3c4c(c5c6ccccc6n2c5c31)C(=O)NC4=O (stereo partly specified) | 82.2 | 105 | 90.2 | 106 | 98.1 | 104 | 98.3 | 101 | 58.4 | 40.4 | 10.2 | 76.8 | 90.2 | 83.1 | 91 | 88.4 | 104 | 87 | 89.3 | 53.5 | 47.7 | 8.01 | 71.5 | 78.8 | 78 | 91.7 | 85.1 | 85.4 | 75.3 | 90.6 | 42.7 | 49.1 | 8.58
3 | CO[C@H]1C[C@@H]2CC[C@@H](C)[C@@](O)(O2)C(=O)C(=O)N2CCCC[C@H]2C(=O)O[C@H]([C@H](C)C[C@@H]2CC[C@@H](OCCO)[C@H](OC)C2)CC(=O)[C@H](C)/C=C(/C)[C@@H](O)[C@@H](OC)C(=O)[C@H](C)C[C@H](C)\C=C/C=C\C=C/1C | 91.8 | 97.5 | 95.7 | 92.9 | 81.7 | 95.4 | 80.7 | 68.8 | 73.8 | 64.1 | 57.4 | 86.5 | 94.6 | 97.8 | 99.4 | 98.4 | 94.2 | 85.4 | 88 | 84.8 | 61.3 | 70.8 | 85 | 91.2 | 84.5 | 76.7 | 85 | 78.1 | 78.7 | 73.1 | 76.3 | 58.9 | 61.5
4 | CCNc1cc(NC2CCC(O)CC2)nc(Nc2ccc3c(ccn3Cc3ccccc3)c2)n1 (stereo unspecified) | 113 | 121 | 126 | 124 | 147 | 118 | 127 | 139 | 121 | 116 | 120 |  |  |  |  |  |  |  |  |  |  |  | 115 | 123 | 124 | 142 | 141 | 129 | 148 | 121 | 150 | 145 | 106
5 | Nc1nc(OCc2ccccc2)c2nc[nH]c2n1 |  |  |  |  |  |  |  |  |  |  |  | 95.7 | 117 | 103 | 109 | 113 | 101 | 133 | 107 | 108 | 108 | 115 | 110 | 119 | 123 | 118 | 128 | 125 | 122 | 110 | 116 | 129 | 123
6 | CCN(CC)CCN1C(=O)\C(=N/C2=CC=CC=C12)CC3=CC=C(OC)C=C3 | 111 | 117 | 99.1 | 118 | 119 | 110 | 115 | 115 | 109 | 113 | 116 | 96.1 | 101 | 117 | 109 | 97.4 | 96.6 | 107 | 102 | 111 | 101 | 97.7 | 98.4 | 102 | 113 | 111 | 115 | 119 | 119 | 121 | 111 | 101 | 102
7 | NC(=O)Nc1cc(-c2ccc(CN3CCOCC3)cc2)sc1C(N)=O | 122 | 112 | 121 | 132 | 113 | 68.3 | 71.7 | 91.5 | 84.6 | 74.9 | 48.4 | 100 | 113 | 126 | 101 | 97.6 | 50 | 50.8 | 45.9 | 52.1 | 58.5 | 49.6 | 107 | 99.3 | 108 | 108 | 101 | 55.5 | 46.2 | 47.8 | 56 | 58.3 | 37.2
8 | CCCCCCCCCCCCCCCCCCOP(=O)([O-])OC1CC[N+](C)(C)CC1 | 93.4 | 114 | 94.8 | 114 | 110 | 120 | 114 | 107 | 107 | 98.4 | 99 | 90.5 | 105 | 113 | 121 | 98.5 | 113 | 120 | 105 | 110 | 93.8 | 96.4 | 96.6 | 107 | 105 | 103 | 100 | 118 | 110 | 102 | 106 | 93.2 | 84.7
9 | CCN1C[C@]2(OC(=O)c3ccccc3NC(C)=O)CC[C@H](OC)[C@@]34[C@@H]2C[C@@H]([C@@H]13)[C@@]1(O)C[C@H](OC)[C@H]2C[C@@H]4[C@]1(O)[C@H]2OC | 106 | 101 | 118 | 101 | 108 | 88.3 | 118 | 103 | 112 | 93.2 | 114 | 96.3 | 99.4 | 101 | 106 | 103 | 91.6 | 118 | 107 | 95.1 | 101 | 107 | 98 | 104 | 120 | 99.1 | 105 | 105 | 109 | 107 | 111 | 106 | 95.9
10 | COc1ccc(Nc2cc(-c3cnc(N)nc3)nc(N3CCOCC3)n2)cn1 | 105 | 105 | 84.5 | 97.2 | 83.3 | 87 | 76.6 | 79.9 | 54.7 | 46.8 | 39.6 | 82.6 | 90.2 | 88.2 | 84.4 | 83.4 | 88 | 78.4 | 84.8 | 60.5 | 65.4 | 52.7 | 86.8 | 91.8 | 85.3 | 88 | 91.6 | 76.8 | 71.3 | 75.1 | 56.4 | 56.8 | 44.5
11 | COC[C@H]1OC(=O)C2=COC3=C2[C@@]1(C)\C4=C(\[C@@H]5CC[C@H](O)[C@@]5(C)C[C@H]4OC(C)=O)C3=O | 106 | 112 | 117 | 111 | 132 | 134 | 118 | 113 | 88.6 | 93.1 | 70.6 | 98.9 | 111 | 117 | 107 | 123 | 114 | 117 | 109 | 110 | 102 | 87.6 | 88.2 | 103 | 110 | 106 | 118 | 126 | 115 | 119 | 97.9 | 94 | 83.5
12 | Cc1ccc(-c2ncn(-c3ccc(Nc4nccc(-c5cccc(N6CCOCC6)c5)n4)cc3)n2)cn1 | 94.8 | 90.9 | 96.8 | 109 | 105 | 87.8 | 13.6 | 10.2 | 7.32 | 8.09 | 5.6 | 88.4 | 40 | 80.9 | 94.6 | 86.4 | 87.4 | 16.4 | 8.16 | 7.21 | 5.58 | 6.57 | 87.7 | 94.2 | 88.9 | 97.8 | 94.9 | 89.2 | 20.3 | 8.8 | 8.22 | 7.85 | 5.33
13 | CN(C)C[C@@H]1CC[N]2C=C(C3=C2C=CC=C3)C/4=C(/C(=O)NC4=O)C5=C[N](CCO1)C6=C5C=CC=C6 | 88.8 | 111 | 109 | 96.6 | 102 | 91.4 | 94 | 88.7 | 95.4 | 85.3 | 27.7 | 98.3 | 85.9 | 89.3 | 87.4 | 91.7 | 92.9 | 93 | 87.5 | 86.1 | 83.5 | 73.3 | 90.6 | 84.2 | 99.8 | 93.4 | 99.6 | 97.3 | 92.3 | 85.8 | 83.7 | 77.7 | 67.7
14 | CC(C)NCC(O)c1ccc(NS(C)(=O)=O)cc1 (stereo unspecified) | 110 | 114 | 110 | 120 | 126 | 119 | 101 | 113 | 109 | 102 | 111 | 90.5 | 91.9 | 104 | 86.2 | 90.7 | 98.6 | 89.4 | 89 | 94.1 | 104 | 94.2 | 87.9 | 103 | 110 | 102 | 105 | 124 | 102 | 94.1 | 102 | 98.1 | 117
15 | NCC(=O)Nc1ccc(-n2nc(C(F)(F)F)cc2-c2ccc3c(ccc4ccccc43)c2)cc1 | 129 | 123 | 123 | 137 | 134 | 124 | 138 | 147 | 131 | 108 | 78.1 |  |  |  |  |  |  |  |  |  |  |  |  |  |  |  |  |  |  |  |  |  | 
